PubChem BioAssay (NCI)
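In this assay, cells in 96-well plates receive the compound at five concentrations for 48 hours. Endpoints are linearly interpolated between the surrounding concentrations. GI50 marks 50% less growth. TGI denotes the concentration required for complete inhibition of growth.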 Where a SMILES comes first, the peptide text is derived from it. [ ]: non-standard residue; d: D form. The star is where a group is joined. Bn2Val = CC(C)[C@@H](C(=O)*)N(Cc1ccccc1)Cc1ccccc1; NH(4-Cl-benzyl) = Clc1ccc(CN*)cc1; NMeV = CN[C@H](C(=O)O)C(C)C; dNMeA = CN[C@H](C)C(=O)O

How the values were obtained:
Test in all cases: NCI tumour cell line growth inhibition, 48 h
SR leukemia = system: SR leukemia
UACC-257 melanoma = system: UACC-257 melanoma
UACC-62 melanoma = system: UACC-62 melanoma
HCC-2998 colon = system: HCC-2998 colon
LOX IMVI melanoma = system: LOX IMVI melanoma
HCT-116 colon = system: HCT-116 colon
OVCAR-5 ovarian = system: OVCAR-5 ovarian
OVCAR-8 ovarian = system: OVCAR-8 ovarian
NCI-H522 lung = system: NCI-H522 lung
MALME-3M melanoma = system: MALME-3M melanoma

Row | SMILES | TGI (SR leukemia) [µM] | TGI (UACC-257 melanoma) [µM] | TGI (UACC-62 melanoma) [µM] | TGI (HCC-2998 colon) [µM] | TGI (LOX IMVI melanoma) [µM] | TGI (HCT-116 colon) [µM] | TGI (OVCAR-5 ovarian) [µM] | TGI (OVCAR-8 ovarian) [µM] | TGI (NCI-H522 lung) [µM] | TGI (MALME-3M melanoma) [µM] | GI50 (UACC-257 melanoma) [µM] | GI50 (UACC-62 melanoma) [µM] | GI50 (OVCAR-5 ovarian) [µM] | GI50 (LOX IMVI melanoma) [µM] | GI50 (MALME-3M melanoma) [µM] | GI50 (HCT-116 colon) [µM] | GI50 (OVCAR-8 ovarian) [µM] | GI50 (NCI-H522 lung) [µM]
1 | C=CCC1C(O[Si](C)(C)C(C)(C)C)C(CO[Si](C)(C)C(C)(C)C)OC1n1ccc(=O)[nH]c1=O (stereo unspecified) | 18.4 | 3.37 | 3.46 | 3.27 | 2.25 | 2.5 | 2.57 | 3.41 | – | – | – | – | – | – | – | – | – | –
2 | C=CCP(=O)(CC=C)C(Cl)Cl | > 100 | > 100 | – | > 100 | > 100 | > 100 | > 100 | > 100 | > 100 | – | – | – | – | – | – | – | – | –
3 | COc1cccc(N[C@@H]2c3cc4c(cc3C(c3cc(OC)c(O)c(OC)c3)[C@H]3C(=O)OCC32)OCO4)c1 (stereo partly specified) | – | 34.3 | 2.83 | 3.79 | 10.3 | 18.7 | > 74.2 | > 23.1 | 8.02 | 20.7 | – | – | – | – | – | – | – | –
4 | Cn1c(-c2ccc(/C=N/NC(=S)N/N=C/c3ccc(-c4c[n+]5ccsc5n4C)cc3)cc2)c[n+]2ccsc12 | > 100 | > 100 | – | > 100 | – | > 100 | > 100 | > 100 | > 100 | – | – | – | – | – | – | – | – | –
5 | CC(C)[C@H](NC(=O)[C@H](C(C)C)N(Cc1ccccc1)Cc1ccccc1)C(=O)N(C)[C@H](C(=O)N1CCC[C@H]1C(=O)N(C)[C@H](C)C(=O)NCc1ccc(Cl)cc1)C(C)C (Bn2Val-V[NMeV]P[dNMeA]-{NH(4-Cl-benzyl)}) | > 100 | > 100 | 13.8 | – | 3.63 | 11.7 | > 100 | > 100 | 4.97 | > 29.7 | – | – | – | – | – | – | – | –
6 | CC(C)(C)[Si](C)(C)OCc1cccc(OCCOc2cccc(CO[Si](C)(C)C(C)(C)C)c2[N+](=O)[O-])c1[N+](=O)[O-] | > 100 | > 100 | > 100 | – | > 100 | > 100 | > 100 | > 100 | > 100 | > 100 | – | – | – | – | – | – | – | –
7 | CCOP(=O)(O)CN1CCNCCN(CP(=O)(O)OCC)CCNCC1 | – | > 100 | > 100 | – | > 100 | > 100 | > 100 | > 100 | > 100 | – | – | – | – | – | – | – | – | –
8 | C/C(=N\Nc1nc2cc(C(F)(F)F)ccc2s1)c1ccccn1 | – | > 31.2 | 3.38 | 18.3 | 2.48 | 2.98 | 23.4 | 1.93 | 4.96 | 8.9 | – | – | – | – | – | – | – | –
9 | COc1cc(C2C(Cl)C(=O)N2c2c(C)n(C)n(-c3ccccc3)c2=O)ccc1O (stereo unspecified) | 58.6 | 40.7 | 29.7 | – | 32.2 | 19.3 | 42.7 | 43.9 | 31 | 61.9 | – | – | – | – | – | – | – | –
10 | Cn1c(=O)oc2nc(-c3ccccc3)cc(C(F)(F)F)c21 | > 100 | > 100 | > 100 | > 100 | – | > 100 | > 100 | > 100 | > 100 | – | – | – | – | – | – | – | – | –
11 | Cc1nn(-c2ccccc2)c(C)c1/C=N/N=C1\S/C(=C\c2ccc(Cl)cc2)C(=O)N1c1ccccc1 | – | > 100 | > 100 | – | > 100 | > 100 | > 100 | > 100 | – | > 100 | – | – | – | – | – | – | – | –
12 | Nc1nc(Cl)cc(NC23CC4CC(CC(C4)C2)C3)n1 | > 100 | > 100 | > 100 | > 100 | – | > 100 | > 100 | > 100 | > 100 | > 100 | – | – | – | – | – | – | – | –
13 | CCOC(=O)Nn1c(CC#N)nnc1Cc1ccccc1 | > 100 | > 100 | > 100 | > 100 | – | > 100 | > 100 | > 100 | > 100 | > 100 | – | – | – | – | – | – | – | –
14 | CCc1cc2c(c3c1CCCC3=O)CC1(Cc3ccc(C(=O)OC)cc3C1)C2 (stereo unspecified) | – | > 100 | – | > 100 | > 100 | > 100 | > 100 | > 100 | > 100 | > 100 | – | – | – | – | – | – | – | –
15 | COc1ccc(Nc2ccc3ccccc3c2-c2c(O)ccc3ccccc23)cc1 | 30.6 | 58.9 | > 100 | 29.1 | 37.7 | 40.5 | 31.8 | 33.6 | 32.8 | – | – | – | – | – | – | – | – | –
16 | C=C=C(CC(CC(=C)Br)(C(=O)OC)C(=O)OC)S(=O)(=O)c1ccccc1 | – | 5.88 | 3.11 | 9.18 | 1.7 | 2.22 | 3.43 | 3.44 | 1.76 | 4.11 | – | – | – | – | – | – | – | –
17 | c1ccc(/C(=N/Nc2ccncn2)c2ccccn2)cc1 | > 100 | > 100 | > 100 | > 100 | – | > 100 | > 100 | 50.2 | 4.14 | – | – | – | – | – | – | – | – | –
18 | C=CC[n+]1c2ccccc2n2cc([N+](=O)[O-])ccc21 | – | 44.6 | 74.9 | > 100 | > 100 | 78.7 | > 100 | 86.2 | 41 | 30.2 | – | – | – | – | – | – | – | –
19 | O=C(Nc1ccccc1C(=O)NCc1ccccc1)/C(=C/c1ccccc1)NC(=O)c1ccccc1 | > 100 | > 100 | > 100 | > 100 | > 100 | > 100 | > 100 | > 100 | > 100 | – | – | – | – | – | – | – | – | –
20 | CC1(C)CC2(CC(C)(C)N1O)NC(=O)OC2=O | – | > 100 | > 100 | > 100 | > 100 | > 100 | > 100 | > 100 | > 100 | > 100 | – | – | – | – | – | – | – | –
21 | CCN=C1C=CC(=C(c2ccc(N(CC)CC)cc2)c2ccc(N(CC)CC)cc2)c2ccccc21 | – | 1.18 | 1.11 | – | – | – | 1.23 | – | – | – | 0.077 | 0.0983 | 0.294 | – | – | – | – | –
22 | Cc1nnc2n1N=C(c1ccc(Cl)cc1Cl)/C(=C/c1ccc(-c3ccc([N+](=O)[O-])cc3Cl)o1)S2 | – | 41.2 | 39.9 | – | 27.4 | 24.8 | 30.9 | 41.5 | 44.9 | 56.1 | 18.1 | 18.4 | 16.5 | 12.3 | 21.2 | 12.3 | 18.1 | 20.9
